Measurements reported in ChEMBL document CHEMBL6120979, “Cell penetrable peptide nucleic acids targeting PDZK1IP1 with anti-inflammatory potential in human keratinocytes” (Bioorg Med Chem Lett, 2025).
Active and inactive are the calls of the source.

Legend:
Type in all cases: functional, cell-based
[1] = test system: Keratinocyte; assay: Antiinflammatory activity in human keratinocytes assessed as downregulation of IL6 gene expression at 1 uM preincubated with compound for 24 hrs followed by IFN-gamma addition and measured after 24 hrs by RT-qPCR analysis; conditions: time 48.0 hrs
[2] = test system: Keratinocyte; assay: Inhibition of PDZK1IP1 mRNA expression in human keratinocytes at 1 uM incubated for 24 hrs by RT-qPCR analysis
[3] = test system: Keratinocyte; assay: Antiinflammatory activity in human keratinocytes assessed as downregulation of PTGS2 gene expression at 1 uM preincubated with compound for 24 hrs followed by IFN-gamma addition and measured after 24 hrs by RT-qPCR analysis; conditions: time 48.0 hrs
[4] = test system: Keratinocyte; assay: Antiinflammatory activity in human keratinocytes assessed as downregulation of PDZK1IP1 gene expression at 1 uM preincubated with compound for 24 hrs followed by IFN-gamma addition and measured after 24 hrs by RT-qPCR analysis; conditions: time 48.0 hrs

Cc1cn(CC(=O)N(CCN)CC(=O)NCCN(CC(=O)NCCN(CC(=O)NCCN(CC(=O)NCCN(CC(=O)NCCN(CC(=O)NCCN(CC(=O)NCCN(CC(=O)NCCN(CC(=O)NCCN(CC(=O)NCCN(CC(=O)NCCN(CC(=O)NCCN(CC(=O)NCCN(CC(=O)NCCN(CC(=O)NCCN(CC(=O)NCCN(CC(=O)NCCN(CC(=O)NCCN(CC(=O)NCCN(CC(N)=O)C(=O)Cn2cnc3c(=O)[nH]c(N)nc32)C(=O)Cn2ccc(N)nc2=O)C(=O)Cn2cnc3c(N)nc(NCCCCCN)nc32)C(=O)Cn2cc(C)c(=O)[nH]c2=O)C(=O)Cn2ccc(N)nc2=O)C(=O)Cn2cnc3c(N)ncnc32)C(=O)Cn2cnc3c(=O)[nH]c(N)nc32)C(=O)Cn2cnc3c(N)ncnc32)C(=O)Cn2ccc(N)nc2=O)C(=O)Cn2cnc3c(N)nc(N)nc32)C(=O)Cn2cnc3c(N)nc(NCCCCCN)nc32)C(=O)Cn2ccc(N)nc2=O)C(=O)Cn2cc(C)c(=O)[nH]c2=O)C(=O)Cn2cc(C)c(=O)[nH]c2=O)C(=O)Cn2ccc(N)nc2=O)C(=O)Cn2cnc3c(N)nc(NCCCCCN)nc32)C(=O)Cn2ccc(N)nc2=O)C(=O)Cn2cc(C)c(=O)[nH]c2=O)C(=O)Cn2cc3cc(COCCN)[nH]c3nc2=O)c(=O)[nH]c1=O
inactive: Activity [1] | inhibition [2] | Activity [3] | Activity [4]
